Test [1] deals with T1, CDK2 (Homo sapiens, UniProt P24941).
T1 construct: purchased Invitrogen Corp. PV3267
Description: CDK2 enzyme inhibition test. The format is biochemical. The following applies: [γ-33P]ATP, MBP substrate; Ki=IC50/(1+S/Km); read-out: Ki value of CDK2 inhibitory activity. The gist of the method: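 Commercial CDK2 phosphorylated MBP with [γ-33P]ATP (500 μM solution before mixing) in HEPES pH 7.4 buffer with DTT, Triton X-100 and MgCl2 for 20 min at 30 °C. TCA-precipitated 33P-MBP was counted by scintillation to give the IC50. Ki = IC50/(1+S/Km), with S the ATP concentration in the reaction.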

The subject of test [2] is IL-17 production. Description: Human PBMC various-stimulant cocktail-induced IL-17 production inhibition test. The format is cell-based. The following applies: 120 h, human T-cell suspension from PBMC, culture for 5 days, ELISA. The source says: PBMC was separated and collected by using Ficoll-Paque (manufactured by GE Healthcare Japan Corp.) from blood collected from a healthy human adult in the presence of heparin. The collected PBMC was further cultured in a flask for a certain time, and then, non-adherent cells in the supernatant were collected and used as a T-cell suspension.
A RPMI1640 medium containing 10% FBS, 1% penicillin/streptomycin/amphotericin B, essential amino acids, and pyruvic acid and containing a test compound dissolved in DMSO, a human CD28 antibody, a human IFN-γ antibody, a human IL-4 antibody, human IL-6, human IL-23, human IL-1β, and human TGF-β was added at 100 μL/well to T cell Activation Plate Anti-Human CD3 96-well plate. Subsequently, 100 μL of a T-cell suspension adjusted to 2×10^5 cells/mL was added to each well (final DMSO concentration: 0.1%). Only DMSO was added to wells not supplemented with the test compound. After culture for 5 days in a carbon dioxide incubator, the culture supernatant was collected and stored at −20° C. until IL-17 content measurement.
In the measurement of an IL-17 content in the culture supernatant, a sandwich ELISA kit (Quantikine Human IL-17, manufactured by R&D Systems, Inc.) was used. The IL-17 content of each sample was calculated from the calibration curve of Standard IL-17 included in the kit. […] The concentration of the test compound necessary for inhibiting 50% of IL-17 production (IC50 value) was calculated from the concentration of the added test compound and the rate of inhibition of IL-17 production by the test compound by using EXSUS (version 8.1.0, manufactured by CAC Exicare Corp.).

The subject of test [3] is human large intestine cancer cell line (HCT-116). The test is described as follows: Human large intestine cancer (HCT-116) cell growth inhibition test. The format is cell-based. In short, it runs like this:
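HCT-116 cells were seeded at 0.5 to 2.0×10^3 cells/well in McCoy's 5A with 10% FBS and dosed with compound at 0.1% final DMSO after overnight culture. Growth was measured by sulforhodamine B absorbance after 3 days. GI50 was calculated from the inhibition rate at each concentration.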

The mark [4] stands for this setting: HCT-116 (row of Table 50), read-out: GI50 value (concentration necessary for inhibiting 50% of cell growth).
The mark [5] stands for this setting: HCT-116, 72 h, culture for 3 days, sulforhodamine B, read-out: GI50 value, HCT-116 cell growth inhibition.

Like-named read-outs stand apart in the source and are kept apart here. Bounds are passed on as bounds.

For `Cc1cccc(Br)c1NC(=O)N1Cc2c(NC(=O)C3([Si](C)(C)C)CCC3)n[nH]c2C1(C)C` [IV-299, N-(2-Bromo-6-methylphenyl)-6,6-dimethyl-3-[1-(trimethylsilyl)cyclobutanecarboxamido]-4,6-dihydropyrrolo[3,4-c]pyrazole-5 (1H)-carboxamide], the Ki in test [1] is not below 1000 nM. The compound also returned an IC50 in test [2] not above 100 nM. In addition, the GI50 in test [3] (setting [4]) is less than 300 nM; in test [3] (setting [5]), not above 100 nM.
For `CC1(C)c2[nH]nc(NC(=O)C3([Si](C)(C)C)CCC3)c2CN1C(=O)Nc1c(Cl)cccc1Cl` [IV-199, N-(2,6-Dichlorophenyl)-6,6-dimethyl-3-[1-(trimethylsilyl)cyclobutanecarboxamido]-4,6-dihydropyrrolo[3,4-c]pyrazole-5(1H)-carboxamide], the Ki in test [1] is not below 1000 nM. In test [2], this compound came in with an IC50 not above 100 nM. Besides, the GI50 in test [3] (setting [5]) is not above 100 nM.
As for `CC1(C)c2[nH]nc(NC(=O)C3([Si](C)(C)C)CCC3)c2CN1C(=O)Nc1c(F)cccc1OC(F)F` [IV-169, N-[2-(Difluoromethoxy)-6-fluorophenyl]-6,6-dimethyl-3-[1-(trimethylsilyl)cyclobutanecarboxamido]-4,6-dihydropyrrolo[3,4-c]pyrazole-5(1H)-carboxamide], in test [1], the Ki was not below 1000 nM. In addition, the GI50 in test [3] (setting [5]) is not above 100 nM.
In the case of `CC1(C)c2[nH]nc(NC(=O)C3([Si](C)(C)C)CCC3)c2CN1C(=O)Nc1c(F)ccc2ccoc12` [IV-1049, N-(6-Fluorobenzofuran-7-yl)-6,6-dimethyl-3-[1-(trimethylsilyl)cyclobutanecarboxamido]-4,6-dihydropyrrolo[3,4-c]pyrazole-5 (1H)-carboxamide], the inhibitory constant (Ki) in test [1] was not below 1000 nM. The compound further registered an IC50 in test [2] not above 100 nM. Further, the GI50 in test [3] (setting [4]) was less than 300 nM; in test [3] (setting [5]) it was not above 100 nM.
Regarding `Cc1cccc(F)c1NC(=O)N1Cc2c(NC(=O)C3([Si](C)(C)C)CCC3)n[nH]c2C1(C)C` [IV-129, N-(2-Fluoro-6-methylphenyl)-6,6-dimethyl-3-[1-(trimethylsilyl)cyclobutanecarboxamido]-4,6-dihydropyrrolo[3,4-c]pyrazole-5 (1H)-carboxamide], in test [1], the inhibitory constant (Ki) is not below 1000 nM. The compound further registered an IC50 in test [2] not above 100 nM. In addition, in test [3] (setting [5]), the GI50 was not above 100 nM.
Regarding `Cc1cccc(Cl)c1NC(=O)N1Cc2c(NC(=O)C3([Si](C)(C)C)CCC3)n[nH]c2C1(C)C` [IV-215, N-(2-Chloro-6-methylphenyl)-6,6-dimethyl-3-[1-(trimethylsilyl)cyclobutanecarboxamido]-4,6-dihydropyrrolo[3,4-c]pyrazole-5 (1H)-carboxamide], the inhibition constant (Ki) in test [1] is not below 1000 nM. In test [2], this compound had an IC50 not above 100 nM. Moreover, the GI50 is less than 300 nM in test [3] (setting [4]) and not above 100 nM in test [3] (setting [5]).
`Cc1ccc(F)c(NC(=O)N2Cc3c(NC(=O)C4([Si](C)(C)C)CCC4)n[nH]c3C2(C)C)c1` [IV-127, N-(2-Fluoro-5-methylphenyl)-6,6-dimethyl-3-[1-(trimethylsilyl)cyclobutanecarboxamido]-4,6-dihydropyrrolo[3,4-c]pyrazole-5 (1H)-carboxamide]: in test [1], the Ki was not below 1000 nM. The GI50 in test [3] (setting [5]) was not above 100 nM.
Take `CC1(C)c2[nH]nc(NC(=O)C3([Si](C)(C)C)CCC3)c2CN1C(=O)Nc1c(F)ccc2cc(Cl)oc12` [IV-1063, N-(2-Chloro-6-fluorobenzofuran-7-yl)-6,6-dimethyl-3-[1-(trimethylsilyl)cyclobutanecarboxamido]-4,6-dihydropyrrolo[3,4-c]pyrazole-5(1H)-carboxamide]: the Ki in test [1] is not below 1000 nM. The GI50 in test [3] (setting [5]) was not above 100 nM.
In the same order, the values of `CC1(C)c2[nH]nc(NC(=O)C3([Si](C)(C)C)CCC3)c2CN1C(=O)Nc1c(F)ccc(F)c1F` [IV-597, 6,6-Dimethyl-N-(2,3,6-trifluorophenyl)-3-[1-(trimethylsilyl)cyclobutanecarboxamido]-4,6-dihydropyrrolo[3,4-c]pyrazole-5(1H)-carboxamide] are not below 1000 nM and not above 100 nM.
In the case of `Cc1ccc(F)cc1NC(=O)N1Cc2c(NC(=O)C3([Si](C)(C)C)CCC3)n[nH]c2C1(C)C` [IV-361, N-(5-Fluoro-2-methylphenyl)-6,6-dimethyl-3-[1-(trimethylsilyl)cyclobutanecarboxamido]-4,6-dihydropyrrolo[3,4-c]pyrazole-5 (1H)-carboxamide], the Ki in test [1] is not below 1000 nM. The compound also registered a concentration for half-maximal inhibition (IC50) in test [2] not above 100 nM. In addition, the GI50 in test [3] (setting [4]) is less than 300 nM; in test [3] (setting [5]), not above 100 nM.
Take `COc1cccc(F)c1NC(=O)N1Cc2c(NC(=O)C3([Si](C)(C)C)CCC3)n[nH]c2C1(C)C` [IV-161, N-(2-Fluoro-6-methoxyphenyl)-6,6-dimethyl-3-[1-(trimethylsilyl)cyclobutanecarboxamido]-4,6-dihydropyrrolo[3,4-c]pyrazole-5(1H)-carboxamide]: the Ki in test [1] is not below 1000 nM. In test [3] (setting [5]), the GI50 is not above 100 nM.
Regarding `CCc1cccc(C)c1NC(=O)N1Cc2c(NC(=O)C3([Si](C)(C)C)CCC3)n[nH]c2C1(C)C` [IV-389, N-(2-Ethyl-6-methylphenyl)-6,6-dimethyl-3-[1-(trimethylsilyl)cyclobutanecarboxamido]-4,6-dihydropyrrolo[3,4-c]pyrazole-5 (1H)-carboxamide], in test [1], the Ki is not below 1000 nM. This compound also gave an IC50 in test [2] not above 100 nM. In addition, the GI50 in test [3] (setting [5]) is not above 100 nM.
For the compound `CC1(C)c2[nH]nc(NC(=O)C3([Si](C)(C)C)CCC3)c2CN1C(=O)Nc1ccccc1Br` [IV-15, N-(2-Bromophenyl)-6,6-dimethyl-3-[1-(trimethylsilyl)cyclobutanecarboxamido]-4,6-dihydropyrrolo[3,4-c]pyrazole-5(1H)-carboxamide], in test [1], the Ki is not below 1000 nM. For the same compound, in test [3] (setting [5]), the GI50 is not above 100 nM.
For the compound `Cc1ccccc1NC(=O)N1Cc2c(NC(=O)C3([Si](C)(C)C)CCC3)n[nH]c2C1(C)C` [IV-21, 6,6-Dimethyl-N-(o-tolyl)-3-[1-(trimethylsilyl)cyclobutanecarboxamido]-4,6-dihydropyrrolo[3,4-c]pyrazole-5(1H)-carboxamide], the Ki in test [1] was not below 1000 nM. In addition, the GI50 in test [3] (setting [5]) was not above 100 nM.
In the case of `Cc1ccc(C)c(NC(=O)N2Cc3c(NC(=O)C4([Si](C)(C)C)CCC4)n[nH]c3C2(C)C)c1` [IV-379, N-(2,5-Dimethylphenyl)-6,6-dimethyl-3-[1-(trimethylsilyl)cyclobutanecarboxamido]-4,6-dihydropyrrolo[3,4-c]pyrazole-5(1H)-carboxamide], the Ki in test [1] was not below 1000 nM. In test [2], this compound showed a half-maximal inhibitory concentration (IC50) not above 100 nM. Further, the GI50 was less than 300 nM in test [3] (setting [4]) and not above 100 nM in test [3] (setting [5]).
With `Cc1cc(F)ccc1NC(=O)N1Cc2c(NC(=O)C3([Si](C)(C)C)CCC3)n[nH]c2C1(C)C` [IV-359, N-(4-Fluoro-2-methylphenyl)-6,6-dimethyl-3-[1-(trimethylsilyl)cyclobutanecarboxamido]-4,6-dihydropyrrolo[3,4-c]pyrazole-5 (1H)-carboxamide], in test [1], the Ki is not below 1000 nM. In test [3] (setting [5]), the GI50 is not above 100 nM.
As for `CC1(C)c2[nH]nc(NC(=O)C3([Si](C)(C)C)CCC3)c2CN1C(=O)Nc1ccccc1F` [IV-3, N-(2-Fluorophenyl)-6,6-dimethyl-3-[1-(trimethylsilyl)cyclobutanecarboxamido]-4,6-dihydropyrrolo[3,4-c]pyrazole-5(1H)-carboxamide], in test [1], the Ki was not below 1000 nM. In test [2], this compound came in with a 50% inhibitory concentration (IC50) not above 100 nM. For the same compound, the results for the GI50 in test [3] (setting [4]) and in test [3] (setting [5]) were less than 300 nM and not above 100 nM, respectively.
With `CCc1cccc(F)c1NC(=O)N1Cc2c(NC(=O)C3([Si](C)(C)C)CCC3)n[nH]c2C1(C)C` [IV-137, N-(2-Ethyl-6-fluorophenyl)-6,6-dimethyl-3-[1-(trimethylsilyl)cyclobutanecarboxamido]-4,6-dihydropyrrolo[3,4-c]pyrazole-5(1H)-carboxamide], in test [1], the Ki is not below 1000 nM. In test [2], this compound registered a half-inhibitory concentration (IC50) not above 100 nM. Besides, in test [3] (setting [5]), the GI50 is not above 100 nM.
Regarding `CC1(C)c2[nH]nc(NC(=O)C3([Si](C)(C)C)CCC3)c2CN1C(=O)Nc1c(F)cccc1Cl` [IV-113, N-(2-Chloro-6-fluorophenyl)-6,6-dimethyl-3-[1-(trimethylsilyl)cyclobutanecarboxamido]-4,6-dihydropyrrolo[3,4-c]pyrazole-5(1H)-carboxamide], in test [1], the inhibition constant Ki was not below 1000 nM. The GI50 in test [3] (setting [5]) is not above 100 nM.

A word on the Ki: it is a measure of affinity in units of concentration, obtained from inhibition or displacement. The term IC50 denotes the concentration needed to halve the response being measured. A lower IC50 goes with inhibition by little substance.
